Molecules are shown by their SMILES.

The text below walks through data of patent US6355428B1, “Nucleic acid ligand interaction assays” (Genelabs Technologies, Inc., priority 1998, dated 2002).

In experiment [1] the test system is GCGGTATTT (mixed) DNA duplex (SEQ ID NO: 12). The experiment is described as follows: SPA direct binding assay, mixed sequence indicator duplex. An excerpt:
This technology can be applied to studies of ligand binding as disclosed herein. Example 13, below, describes the use of the assay in a high throughput screening method, using the SPA detection system. In this example, the first oligonucleotide is labeled with biotin, and is then tightly bound to streptavidin-coated SPA beads via the strong biotin/streptavidin interaction. These beads are impregnated with scintillant. The second oligonucleotide is labeled with a weak β-emitter, such as ^3H or ^33P. The radioactive second oligonucleotide is mixed with a solution of the beads under conditions at which the first and second oligonucleotides exist primarily as single strands, as described above. The signal will thus be low, as the oligonucleotides are non-hybridized. When ligand is added, the duplex form is stabilized, and the increased proximity of the radioactive isotope (e.g., ^3H, ^33P) in the second oligonucleotide causes the bead to which the first oligonucleotide is bound to scintillate. A signal thus indicates the presence of an effective binding ligand molecule; test sequences giving higher signals indicate the relative preference for different sequences.
The data in Table II compare raw signal counts from SPA assays using three different oligonucleotides and three concentrations (0, 100, and 500 nM) of the DNA binding drug distamycin. The oligonucleotides used were G/C-rich (CCGCGCC; SEQ ID NO: 6), A/T-rich (CTTTATTATTTT; SEQ ID NO: 2), or mixed sequence (GCGGTATTT; SEQ ID NO: 12) DNA duplexes. One strand of the duplex was synthesized with a 5′-biotin label, the other strand was labeled with ^33P, as described in Example 13.
Indicator oligonucleotides as shown in Table 1 were used in this assay, as shown in Table II and FIGS. 4A-E. One strand of each duplex was labeled with biotin at the 5′-end, and the complementary strand was 3′-labeled with ^33P. […] In the absence of ligand, and under these conditions, the oligonucleotides exist in single-stranded conformation. As a result, the oligonucleotide containing the radioactive label is not in close proximity to the SPA bead, and the light given off by the beads is low, i.e., at background. As a duplex-stabilizing ligand is added, the radioactive ^33P is brought into close proximity to the SPA bead, and the light emitted from the SPA bead increases. Accordingly, each of five known DNA-binding compounds was added in increasing concentrations, and the effect on scintillation count was observed, giving the results shown in FIGS. 4A-E.

The test system of experiment [2] is indicator oligo SEQ ID NO: 12 (mixed sequence) versus unlabeled competitor dsDNA. Briefly: ECL competitive assay with 12-base duplex competitor oligos. The format is binding. The following applies: competitor having only one A/T base pair; 0.008 to 8.33 μM competitor. The protocol:
Three 12-base duplex competitor oligos, containing 1-, 5-, and 8-base stretches of A/T's flanked by G/C sequences, were tested as competitors, using distamycin as the binding ligand and SEQ ID NO: 12 (mixed sequence) as the indicator oligo. The indicator pair was labeled with a 5′ ruthenium chelate on one strand and a 3′biotin on the complementary strand, as described above and in Example 14.
Distamycin was premixed at […] with 0.25 nM indicator oligo. The assay was conducted as described in Example 14, using the Igen Origen® apparatus. Ligand binding, which stabilizes the duplexed form of the indicator DNA, results in an increase in the ECL signal. Unlabeled competitor dsDNA (no ruthenium or biotin label) was then added at concentrations ranging from 0.008 to 8.33 μM, and the decrease in the signal was monitored, as shown in FIG. 13.
An indicator pair of oligonucleotides, having the sequence SEQ ID NO: 12 and complement, were labeled with a 5′ ruthenium (bipy) chelate on one strand, as described in U.S. Pat. No. 5,635,347 and references cited therein, and with a 3′ biotin on the complementary strand. […] The biotinylated strand of DNA was captured on the bead surface, and any ruthenium captured by the streptavidin via drug-stabilized hybridization of the indicator duplex was quantified with the IGEN Origen™ analyzer. […]

On to `Cn1cc(NC(=O)c2cc(NC(=O)c3cc(NC=O)cn3C)cn2C)cc1C(=O)NCCC(=N)N` [Distamycin, distamycin], for which the CPM in experiment [1] (100 nM Distamycin, 10 mM Na+) is 597 CPM; in experiment [1] (100 nM Distamycin, 50 mM Na+), 868 CPM; in experiment [1] (500 nM Distamycin, 10 mM Na+), 1951 CPM; in experiment [1] (500 nM Distamycin, 50 mM Na+), 2234 CPM. In experiment [2], the “competition by competitor oligonucleotide (FIG. 13)” value is recorded as “little competition was observed”.
